Assay results taken from patent US20040053962A1, “Methods for inhibiting proliferation and inducing apoptosis in cancer cells” (priority 2003, published 2004).

Experiments:
[1] = test system: Capan-1 pancreatic cancer cell line; assay: [3H]-thymidine incorporation (DNA synthesis), Capan-1; type: cell-based; conditions: mean±SEM; for proliferation (thymidine incorporation), % control: 24 hours
Procedure: (§1) Cell culture. The following pancreatic cancer cell lines were used: MiaPaCa-2 and PANC-1 (poorly-differentiated); Capan-1 and Capan-2 (well-differentiated); and HPAF and AsPC-1 (pleomorphic). These were purchased from American Type Culture Collection (Rockville, Md.). PANC-1 and MiaPaCa-2 were grown in DMEM media; HPAF and AsPC-1 were grown in MEM media; and Capan-1 and Capan-2 were grown in-McCoy's media. Media were supplemented with 10% FBS, and the cells were grown as monolayers in a humidified atmosphere of […] and 5% CO2 at 37° C. The cells were regularly seeded into 75 cm^2 flask with media changed every other day. For experiments, cells were grown to 80% confluence, digested with trypsin-EDTA, and plated either in 12 or 24-well plates at a concentration of 50,000/ml, as appropriate.
(§2) DNA synthesis by [^3H]-Thymidine incorporation. Cells were plated in 12 or 24-well plates. After reaching 70% confluence, they were incubated in serum-free media for 24 hours, which was then replaced with fresh serum-free media with or without the appropriate concentration of leukotriene B4 receptor antagonist LY293111 (62.5-1000 nM), LTB4 (100-400 nM), or both. After the appropriate period of culture, cellular DNA synthesis was assayed by adding 0.5 μCi/well of [^3H]-methyl-thymidine and incubating for another 2 hours. Then, the cells were washed twice with PBS, fixed with 10% trichloroacetic acid (“TCA”) for 30 minutes, and solubilized by adding 0.4 M NaOH to each well. Radioactivity, indicating incorporation of ^3H-thymidine into DNA, was measured by adding a scintillation cocktail and counting on a scintillation counter (LKB RackBeta, Wallac, Turku, Finland)

[2] = test system: Capan-2 pancreatic cancer cell line; assay: [3H]-thymidine incorporation (DNA synthesis), Capan-2; type: cell-based; conditions: mean±SEM; for proliferation (thymidine incorporation), % control: 24 hours
Procedure: as §1, §2

[3] = test system: pancreatic, colonic, and breast cancer cell lines; assay: Proliferation by thymidine incorporation and cell number, all lines studied; type: cell-based
Procedure: as §2
Cell proliferation assay. Pancreatic cancer cells were seeded into 24-well microplates and incubated at 37° C. After 24 hours, cells were cultured in serum-free media with or without 250 nM LY293111 for 24, 48, and 72 hours. At the end of each time period, the cells were trypsinized to produce a single cell suspension, and the cell number in each well was determined using a Zi-Coulter Counter (Luton, Bedfordsire, United Kingdom). […]

[4] = test system: MiaPaCa-2 pancreatic cancer cell line; assay: [3H]-thymidine incorporation (DNA synthesis), MiaPaCa-2; type: cell-based
Procedure: as §1, §2

[5] = test system: AsPc-1 human pancreatic tumor cell line xenograft; assay: AsPc-1 xenograft tumor growth in athymic mice; type: in vivo; conditions: 0.01% LY293111 in the drinking water, started four days after s.c. injection of 3 million AsPc-1 cells
Procedure: Athymic mice received a subcutaneous injection of 3 million cancer cells in 50 μl of serum-free media. The highly malignant and aggressive pancreatic tumor cell line, AsPc-1, was used in this experiment. The tumors were allowed to establish and grow for four days prior to treatment with 0.01% LY293111 in the drinking water.

## CCCc1c(OCCCOc2cc(O)c(-c3ccc(F)cc3)cc2CC)cccc1Oc1ccccc1C(=O)O [LY293111, 2-(2-propyl-3-(3-(2-ethyl-4-(4-fluorophenyl)-5-hydroxyphenoxy)propoxy)-phenoxy)benzoic acid]
[1]; Capan-1, LY293111 62.5 nM
  proliferation (thymidine incorporation), % control: 99.1 ± 4.8 % control
[1]; Capan-1, LY293111 125 nM
  proliferation (thymidine incorporation), % control: 56.9 ± 4.9 % control
[1]; Capan-1, LY293111 250 nM
  proliferation (thymidine incorporation), % control: 16.4 ± 2.0 % control
[1]; Capan-1, LY293111 500 nM, 6 h
  proliferation, % control (time course): 70.5 ± 8.7 % control
[1]; Capan-1, LY293111 500 nM, 12 h
  proliferation, % control (time course): 44.5 ± 10.2 % control
[1]; Capan-1, LY293111 500 nM, 24 h
  proliferation, % control (time course): 15.7 ± 3.4 % control
[1]; Capan-1, LY293111 500 nM
  proliferation (thymidine incorporation), % control: 15.7 ± 3.4 % control
[1]; Capan-1, LY293111 1000 nM
  proliferation (thymidine incorporation), % control: 0.2 ± 0.3 % control
[2]; Capan-2, LY293111 62.5 nM
  proliferation (thymidine incorporation), % control: 95.4 ± 8.7 % control
[2]; Capan-2, LY293111 125 nM
  proliferation (thymidine incorporation), % control: 67.3 ± 6.8 % control
[2]; Capan-2, LY293111 250 nM
  proliferation (thymidine incorporation), % control: 51.2 ± 5.8 % control
[2]; Capan-2, LY293111 500 nM, 6 h
  proliferation, % control (time course): 57.8 ± 4.3 % control
[2]; Capan-2, LY293111 500 nM, 12 h
  proliferation, % control (time course): 32.1 ± 5.6 % control
[2]; Capan-2, LY293111 500 nM, 24 h
  proliferation, % control (time course): 10.9 ± 6.0 % control
[2]; Capan-2, LY293111 500 nM
  proliferation (thymidine incorporation), % control: 15.8 ± 9.6 % control
[2]; Capan-2, LY293111 1000 nM
  proliferation (thymidine incorporation), % control: 8.9 ± 2.1 % control
[3]
  effect on proliferation (thymidine incorporation and cell number): profound concentration-dependent and time-dependent inhibition of proliferation
[4]; MiaPaCa-2 (FIG. 6A), LY293111 250 nM, 24 hours
  decrease of proliferation: 50%
[4]; MiaPaCa-2, 250 nM LY293111 + 100 nM LTB4, 24 hours
  proliferation with combination of LTB4 and LY293111: restored to almost the control level
[4]; MiaPaCa-2, concentration-dependent (FIG. 1A, P<0.0001) and time-dependent (FIG. 1B, P<0.0001)
  effect on thymidine incorporation: inhibition of thymidine incorporation
[5]
  tumor size vs control group: smaller tumors
